Source: ChEMBL document CHEMBL4346666, “Synthesis, mitochondrial localization of fluorescent derivatives of cinnamamide as anticancer agents” (Eur J Med Chem, 2019)
Activity calls are given as the source filed them. The rule behind the calls is not given here.

Tests used:
HL-60 [1] = assay: Cytotoxicity against human HL60 cells assessed as reduction in cell viability measured after 48 hrs in presence of ROS scavenger N-acetyl-L-cysteine and VE by MTT assay; format: functional, cell-based
HL-60 [2] = assay: Induction of ROS generation in human HL60 cells after 6 hrs by DCFH-DA probe based flow cytometry analysis; format: functional, cell-based
[3] = Drug uptake in human HL60 cells by flow cytometry; format: ADME, cell-based; conditions: hl-60
[4] = Drug uptake in human HL60 cells at 20 uM measured after 0.5 hrs by spectrofluorimetric analysis relative to PBMC cells; format: ADME, cell-based; conditions: hl-60, 0.5 h
[5] = Drug uptake in human HL60 cells at 20 uM measured after 1.5 hrs by spectrofluorimetric analysis relative to PBMC cells; format: ADME, cell-based; conditions: hl-60, 1.5 h
HepG2 = assay: Cytotoxicity against human HepG2 cells assessed as cell viability at 20 uM measured after 48 hrs by MTT assay relative to control; format: functional; conditions: HepG2, 48 h, read-out: Activity
HeLa = assay: Cytotoxicity against human HeLa cells assessed as cell viability at 20 uM measured after 48 hrs by MTT assay relative to control; format: functional; conditions: read-out: Activity
MCF7 = assay: Cytotoxicity against human MCF7 cells assessed as cell viability at 20 uM measured after 48 hrs by MTT assay relative to control; format: functional; conditions: MCF7, 48 h, read-out: Activity
HL-60 [6] = assay: Cytotoxicity against human HL60 cells assessed as cell viability at 20 uM measured after 48 hrs by MTT assay relative to control; format: functional; conditions: HL-60, 48 h, read-out: Activity
HL-60 [7] = assay: Cytotoxicity against human HL60 cells assessed as reduction in cell viability measured after 48 hrs by MTT assay; format: functional, cell-based; conditions: HL-60, 48 h
PBMC = assay: Cytotoxicity against human PBMC assessed as reduction in cell viability measured after 48 hrs by MTT assay; format: cell-based
[8] = Drug localization in mitochondria of human HL60 cells at 1 uM measured after 30 mins by […] dye-based confocal microscopy; format: ADME; conditions: hl-60, 0.5 h
[9] = Drug localization in mitochondria of human HepG2 cells at 1 uM measured after 30 mins by […] dye-based confocal microscopy; format: ADME; conditions: hepg2, 0.5 h
HL-60 [10] = assay: Induction of mitochondrial dysfunction in human HL60 cells assessed as decrease in mitochondrial membrane potential at 10 uM measured after 48 hrs by TMRE probe-based flow cytometry relative to control; format: functional
HL-60 [11] = assay: Induction of mitochondrial dysfunction in human HL60 cells assessed as decrease in mitochondrial membrane potential at 15 uM measured after 48 hrs by TMRE probe-based flow cytometry relative to control; format: functional
HL-60 [12] = assay: Induction of mitochondrial dysfunction in human HL60 cells assessed as decrease in mitochondrial membrane potential at 20 uM measured after 48 hrs by TMRE probe-based flow cytometry relative to control; format: functional
HL-60 [13] = assay: Induction of cell cycle arrest in human HL60 cells assessed as accumulation at S-phase at 10 uM after 48 hrs by propidium iodide staining based flow cytometry (reference value: 14.88%); format: functional
HL-60 [14] = assay: Induction of cell cycle arrest in human HL60 cells assessed as accumulation at S phase at 15 uM after 48 hrs by propidium iodide staining based flow cytometry (reference value: 14.88%); format: functional
HL-60 [15] = assay: Induction of cell cycle arrest in human HL60 cells assessed as accumulation at S-phase at 20 uM after 48 hrs by propidium iodide staining-based flow cytometry (reference value: 14.88%); format: functional
HL-60 [16] = assay: Induction of cell cycle arrest in human HL60 cells assessed as accumulation at sub G0/G1 phase at 10 uM after 48 hrs by propidium iodide staining based flow cytometry (reference value: 0%); format: functional
HL-60 [17] = assay: Induction of cell cycle arrest in human HL60 cells assessed as accumulation at sub G0/G1 phase at 15 uM after 48 hrs by propidium iodide staining based flow cytometry (reference value: 0%)l; format: functional
HL-60 [18] = assay: Induction of cell cycle arrest in human HL60 cells assessed as accumulation at sub G0/G1 phase at 20 uM after 48 hrs by propidium iodide staining based flow cytometry (reference value: 0%); format: functional
[19] = Binding affinity to cysteamine residue assessed as hypochromic effect at 20 uM incubated for up to 1 hr by UV-Vis absorption spectrophotometric method
HL-60 [20] = assay: Induction of cell cycle arrest in human HL60 cells assessed as accumulation at G0/G1 phase at 10 uM after 48 hrs by propidium iodide staining based flow cytometry (reference value: 83.52%); format: functional
HL-60 [21] = assay: Induction of cell cycle arrest in human HL60 cells assessed as accumulation at G0/G1 phase at 15 uM after 48 hrs by propidium iodide staining based flow cytometry (reference value: 83.52%); format: functional
HL-60 [22] = assay: Induction of cell cycle arrest in human HL60 cells assessed as accumulation at G0/G1 phase at 20 uM after 48 hrs by propidium iodide staining based flow cytometry (reference value: 83.52%); format: functional
HL-60 [23] = assay: Induction of cell cycle arrest in human HL60 cells assessed as accumulation at G2/M phase at 10 uM after 48 hrs by propidium iodide staining based flow cytometry (reference value: 1.60%); format: functional
HL-60 [24] = assay: Induction of cell cycle arrest in human HL60 cells assessed as accumulation at G2/M phase at 15 uM after 48 hrs by propidium iodide staining based flow cytometry (reference value: 1.60%); format: functional
HL-60 [25] = assay: Induction of cell cycle arrest in human HL60 cells assessed as accumulation at G2/M phase at 20 uM after 48 hrs by propidium iodide staining based flow cytometry (reference value: 1.60%); format: functional
HL-60 [26] = assay: Induction of apoptosis in human HL60 cells assessed as early apoptotic cells at 10 uM after 48 hrs by Annexin-V-FITC/propidium iodide staining based flow cytometry (reference value: 0.71%); format: functional
HL-60 [27] = assay: Induction of apoptosis in human HL60 cells assessed as early apoptotic cells at 15 uM after 48 hrs by Annexin-V-FITC/propidium iodide staining based flow cytometry (reference value: 0.71%); format: functional
HL-60 [28] = assay: Induction of apoptosis in human HL60 cells assessed as early apoptotic cells at 20 uM after 48 hrs by Annexin-V-FITC/propidium iodide staining based flow cytometry (reference value: 0.71%); format: functional
HL-60 [29] = assay: Induction of apoptosis in human HL60 cells assessed as late apoptotic cells or necrotic cells at 10 uM after 48 hrs by Annexin-V-FITC/propidium iodide staining based flow cytometry (reference value: 0.39%); format: functional
HL-60 [30] = assay: Induction of apoptosis in human HL60 cells assessed as late apoptotic cells or necrotic cells at 15 uM after 48 hrs by Annexin-V-FITC/propidium iodide staining based flow cytometry (reference value: 0.39%); format: functional
HL-60 [31] = assay: Induction of apoptosis in human HL60 cells assessed as late apoptotic cells or necrotic cells at 20 uM after 48 hrs by Annexin-V-FITC/propidium iodide staining based flow cytometry (reference value: 0.39%); format: functional
[32] = Drug uptake in human HL60 cells at 20 uM measured after 3 hrs by spectrofluorimetric analysis relative to PBMC cells; format: ADME, cell-based; conditions: hl-60, 3 h
HL-60 [33] = assay: Induction of apoptosis in human HL60 cells assessed as increase in late apoptotic or necrotic cells after 48 hrs by Annexin-V-FITC/propidium iodide staining based flow cytometry relative to control; format: functional, cell-based
[34] = Binding affinity to cysteamine residue at 1:1 to 5:1 stoichiometric ratio of cysteamine to compound incubated for up to 1 hr by UV-Vis absorption spectrophotometric method
[35] = Binding affinity to cysteamine residue by ESI-MS analysis
HL-60 [36] = assay: Cell cycle arrest in human HL60 cells assessed as decrease in accumulation at G2/M phase after 48 hrs by propidium iodide staining based flow cytometry; format: functional
HL-60 [37] = assay: Cell cycle arrest in human HL60 cells assessed as decrease in accumulation at S phase after 48 hrs by propidium iodide staining based flow cytometry; format: functional

Drug uptake [3]: Tde and Dose-dependent effect
fold change (FC) [4]: 4.2
fold change (FC) [5]: 4.5
Drug uptake [8]: Active
Drug uptake [9]: Active
Activity [19]: Active
fold change (FC) [32]: 8.9
Activity [34]: Active
Activity [35]: Active
SMILES: CCN(CC)c1ccc2cc(C(=O)NCCNC(=O)/C(=C/c3cc(OC)c(OC)c(OC)c3)c3ccc(OC)c(OC)c3)c(=O)oc2c1
Activity (HL-60 [1]): inactive
Activity (HL-60 [2]): Dose-dependent effect
viability at 20 µM (HepG2): 56.4%
viability at 20 µM (HeLa): 53.8%
viability at 20 µM (MCF7): 66.5%
viability at 20 µM (HL-60 [6]): 25.8%
IC50 (HL-60 [7]): 9.1 µM
IC50 (PBMC): > 50 µM
fold change (FC) (HL-60 [10]): 0.76
fold change (FC) (HL-60 [11]): 0.46
fold change (FC) (HL-60 [12]): 0.29
Activity (HL-60 [13]): 19.94%
Activity (HL-60 [14]): 35.43%
Activity (HL-60 [15]): 55.59%
Activity (HL-60 [16]): 12.84%
Activity (HL-60 [17]): 24.1%
Activity (HL-60 [18]): 21.44%
Activity (HL-60 [20]): 65.71%
Activity (HL-60 [21]): 24.15%
Activity (HL-60 [22]): 2.69%
Activity (HL-60 [23]): 14.35%
Activity (HL-60 [24]): 40.42%
Activity (HL-60 [25]): 41.72%
Activity (HL-60 [26]): 2.15%
Activity (HL-60 [27]): 6.06%
Activity (HL-60 [28]): 3.75%
Activity (HL-60 [29]): 16.3%
Activity (HL-60 [30]): 38%
Activity (HL-60 [31]): 70.2%
Activity (HL-60 [33]): Dose-dependent effect
Activity (HL-60 [36]): Dose-dependent effect
Activity (HL-60 [37]): Dose-dependent effect
